Results: patent EP4745137A1 (Gluetacs Therapeutics (Shanghai) Co., Ltd., priority 2023, dated 2025)

Columns and labels:
Type in all cases: cell-based
Conditions in all cases: 24 hours of compound treatment
[1] = target: T1, WEE1 (Homo sapiens, UniProt P30291+Q96SW2); experiment: Western-blot assay of substrate protein degradation in hPBMCs, WEE1
T1 construct: endogenous in cells; host or cells: hPBMCs (Milecell Biotechnologies)

[2] = target: T2, IKZF3 (Homo sapiens, UniProt Q96SW2+Q9UKT9); experiment: Western-blot assay of substrate protein degradation in hPBMCs, IKZF3
T2 construct: endogenous in cells; host or cells: hPBMCs (Milecell Biotechnologies)

[3] = target: T3, IKZF2 (Homo sapiens, UniProt Q96SW2+Q9UKS7); experiment: Western-blot assay of substrate protein degradation in hPBMCs, IKZF2
T3 construct: endogenous in cells; host or cells: hPBMCs (Milecell Biotechnologies)

[4] = target: T4, GSPT1 (Homo sapiens, UniProt P15170+Q96SW2); experiment: Western-blot assay of substrate protein degradation in hPBMCs, GSPT1
T4 construct: endogenous in cells; host or cells: hPBMCs (Milecell Biotechnologies)

[5] = target: T5, CK1α (Homo sapiens, UniProt P48729+Q96SW2); experiment: Western-blot assay of substrate protein degradation in hPBMCs, CK1α
T5 construct: endogenous in cells; host or cells: hPBMCs (Milecell Biotechnologies)

[6] = target: T6, IKZF1 (Homo sapiens, UniProt Q13422+Q96SW2); experiment: Western-blot assay of substrate protein degradation in hPBMCs, IKZF1
T6 construct: endogenous in cells; host or cells: hPBMCs (Milecell Biotechnologies)

[7] = 50 nM and 500 nM tested (concentration behind the class not stated)
[8] = compounds tested at 50 nM and 500 nM (concentration of the table not stated)

T5 sequence (P48729 whole entry): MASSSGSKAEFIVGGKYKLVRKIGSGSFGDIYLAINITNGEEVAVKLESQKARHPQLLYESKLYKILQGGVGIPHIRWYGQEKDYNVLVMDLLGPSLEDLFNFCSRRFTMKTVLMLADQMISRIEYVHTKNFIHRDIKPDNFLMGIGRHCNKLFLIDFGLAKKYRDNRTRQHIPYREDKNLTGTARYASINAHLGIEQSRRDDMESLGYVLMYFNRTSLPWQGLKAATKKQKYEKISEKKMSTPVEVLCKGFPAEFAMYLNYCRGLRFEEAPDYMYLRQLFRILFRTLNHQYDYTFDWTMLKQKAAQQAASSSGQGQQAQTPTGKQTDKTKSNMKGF
T5 sequence (Q96SW2 whole entry): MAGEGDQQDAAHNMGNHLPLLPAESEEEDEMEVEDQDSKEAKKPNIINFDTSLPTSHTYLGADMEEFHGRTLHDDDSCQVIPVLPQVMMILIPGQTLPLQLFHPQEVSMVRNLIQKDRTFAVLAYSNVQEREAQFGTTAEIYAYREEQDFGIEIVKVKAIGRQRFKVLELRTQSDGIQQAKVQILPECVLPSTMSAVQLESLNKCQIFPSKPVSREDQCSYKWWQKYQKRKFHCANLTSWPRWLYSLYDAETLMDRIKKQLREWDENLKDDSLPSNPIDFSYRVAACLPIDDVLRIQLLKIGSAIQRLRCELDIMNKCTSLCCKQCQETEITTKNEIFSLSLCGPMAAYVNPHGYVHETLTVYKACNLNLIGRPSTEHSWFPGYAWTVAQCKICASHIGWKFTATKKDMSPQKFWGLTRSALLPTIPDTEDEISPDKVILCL
T5 sequence (Q16531 whole entry partner): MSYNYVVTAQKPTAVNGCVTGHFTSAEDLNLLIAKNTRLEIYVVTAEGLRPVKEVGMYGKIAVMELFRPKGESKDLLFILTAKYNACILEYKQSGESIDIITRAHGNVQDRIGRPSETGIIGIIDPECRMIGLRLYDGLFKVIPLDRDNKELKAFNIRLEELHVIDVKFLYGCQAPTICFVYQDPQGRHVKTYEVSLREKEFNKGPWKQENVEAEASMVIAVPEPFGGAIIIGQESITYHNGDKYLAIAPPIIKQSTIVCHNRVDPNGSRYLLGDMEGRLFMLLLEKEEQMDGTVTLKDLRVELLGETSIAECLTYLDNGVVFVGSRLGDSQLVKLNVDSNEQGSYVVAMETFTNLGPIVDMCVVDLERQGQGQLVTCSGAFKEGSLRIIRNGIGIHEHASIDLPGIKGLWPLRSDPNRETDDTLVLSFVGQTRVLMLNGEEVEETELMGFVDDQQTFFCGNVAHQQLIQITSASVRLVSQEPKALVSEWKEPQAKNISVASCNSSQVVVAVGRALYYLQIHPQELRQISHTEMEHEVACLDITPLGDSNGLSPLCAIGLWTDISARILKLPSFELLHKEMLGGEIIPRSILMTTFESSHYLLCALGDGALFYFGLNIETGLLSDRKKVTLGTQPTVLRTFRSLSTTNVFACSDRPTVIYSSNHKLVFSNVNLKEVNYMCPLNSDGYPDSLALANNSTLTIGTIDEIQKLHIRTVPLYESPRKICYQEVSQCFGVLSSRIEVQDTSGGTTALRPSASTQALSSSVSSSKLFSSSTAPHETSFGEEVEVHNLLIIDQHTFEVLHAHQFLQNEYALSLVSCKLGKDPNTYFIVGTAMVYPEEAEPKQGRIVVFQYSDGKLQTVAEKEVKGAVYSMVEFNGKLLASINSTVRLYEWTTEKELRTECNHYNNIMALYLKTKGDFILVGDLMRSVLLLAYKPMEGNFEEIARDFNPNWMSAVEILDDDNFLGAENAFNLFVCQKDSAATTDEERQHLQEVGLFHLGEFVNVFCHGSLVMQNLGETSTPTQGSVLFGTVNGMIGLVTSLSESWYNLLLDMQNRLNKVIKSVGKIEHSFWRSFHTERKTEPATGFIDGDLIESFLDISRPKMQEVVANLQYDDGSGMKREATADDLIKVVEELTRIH
T1 sequence (P30291 whole entry): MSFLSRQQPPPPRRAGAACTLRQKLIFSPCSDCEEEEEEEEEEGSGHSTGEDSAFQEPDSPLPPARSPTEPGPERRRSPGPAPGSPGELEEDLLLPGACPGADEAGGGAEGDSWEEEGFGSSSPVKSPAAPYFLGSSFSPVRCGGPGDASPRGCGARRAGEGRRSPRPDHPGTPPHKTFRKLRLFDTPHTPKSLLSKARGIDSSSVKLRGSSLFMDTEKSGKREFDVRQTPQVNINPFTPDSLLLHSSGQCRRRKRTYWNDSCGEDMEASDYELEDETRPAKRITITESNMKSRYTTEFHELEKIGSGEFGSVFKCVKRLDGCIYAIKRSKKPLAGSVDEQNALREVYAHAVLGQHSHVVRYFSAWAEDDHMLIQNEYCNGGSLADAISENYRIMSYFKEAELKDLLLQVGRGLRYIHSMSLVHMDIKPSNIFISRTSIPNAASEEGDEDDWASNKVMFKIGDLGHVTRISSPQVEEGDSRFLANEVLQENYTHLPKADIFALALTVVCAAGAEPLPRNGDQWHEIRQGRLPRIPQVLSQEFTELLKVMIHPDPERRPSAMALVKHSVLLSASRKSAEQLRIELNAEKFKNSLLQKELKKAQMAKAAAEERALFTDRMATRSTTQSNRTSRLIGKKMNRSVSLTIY
T1 sequence (Q96SW2 whole entry): as the sequence (Q96SW2 whole entry) above
T1 sequence (Q16531 whole entry partner): as the sequence (Q16531 whole entry partner) above
T2 sequence (Q9UKT9 whole entry): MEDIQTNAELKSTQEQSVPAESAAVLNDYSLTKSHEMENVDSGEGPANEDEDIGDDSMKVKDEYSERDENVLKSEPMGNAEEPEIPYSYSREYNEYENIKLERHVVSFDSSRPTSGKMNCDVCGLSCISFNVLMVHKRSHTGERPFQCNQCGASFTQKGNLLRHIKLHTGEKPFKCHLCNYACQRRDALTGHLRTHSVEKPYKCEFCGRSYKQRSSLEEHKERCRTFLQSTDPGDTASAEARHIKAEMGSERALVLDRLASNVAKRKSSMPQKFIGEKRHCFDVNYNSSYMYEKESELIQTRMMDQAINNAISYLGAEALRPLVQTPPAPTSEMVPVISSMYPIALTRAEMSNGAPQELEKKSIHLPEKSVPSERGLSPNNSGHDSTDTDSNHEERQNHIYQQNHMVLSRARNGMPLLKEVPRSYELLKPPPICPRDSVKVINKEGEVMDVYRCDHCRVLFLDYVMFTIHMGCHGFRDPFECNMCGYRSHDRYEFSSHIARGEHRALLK
T2 sequence (Q96SW2 whole entry): as the sequence (Q96SW2 whole entry) above
T2 sequence (Q16531 whole entry partner): as the sequence (Q16531 whole entry partner) above
T3 sequence (Q9UKS7 whole entry): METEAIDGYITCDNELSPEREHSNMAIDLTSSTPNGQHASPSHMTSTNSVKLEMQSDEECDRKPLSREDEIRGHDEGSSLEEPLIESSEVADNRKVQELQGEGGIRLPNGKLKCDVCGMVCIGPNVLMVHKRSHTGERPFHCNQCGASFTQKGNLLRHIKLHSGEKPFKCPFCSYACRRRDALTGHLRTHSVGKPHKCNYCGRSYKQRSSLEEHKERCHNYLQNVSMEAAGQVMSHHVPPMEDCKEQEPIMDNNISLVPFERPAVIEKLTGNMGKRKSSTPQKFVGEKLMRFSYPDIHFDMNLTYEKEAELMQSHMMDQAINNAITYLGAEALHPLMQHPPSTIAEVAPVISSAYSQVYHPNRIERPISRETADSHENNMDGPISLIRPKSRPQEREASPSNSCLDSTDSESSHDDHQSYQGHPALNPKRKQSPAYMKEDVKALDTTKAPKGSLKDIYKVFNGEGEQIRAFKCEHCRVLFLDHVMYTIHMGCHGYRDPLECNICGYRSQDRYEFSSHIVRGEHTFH
T3 sequence (Q96SW2 whole entry): as the sequence (Q96SW2 whole entry) above
T3 sequence (Q16531 whole entry partner): as the sequence (Q16531 whole entry partner) above
T6 sequence (Q13422 whole entry): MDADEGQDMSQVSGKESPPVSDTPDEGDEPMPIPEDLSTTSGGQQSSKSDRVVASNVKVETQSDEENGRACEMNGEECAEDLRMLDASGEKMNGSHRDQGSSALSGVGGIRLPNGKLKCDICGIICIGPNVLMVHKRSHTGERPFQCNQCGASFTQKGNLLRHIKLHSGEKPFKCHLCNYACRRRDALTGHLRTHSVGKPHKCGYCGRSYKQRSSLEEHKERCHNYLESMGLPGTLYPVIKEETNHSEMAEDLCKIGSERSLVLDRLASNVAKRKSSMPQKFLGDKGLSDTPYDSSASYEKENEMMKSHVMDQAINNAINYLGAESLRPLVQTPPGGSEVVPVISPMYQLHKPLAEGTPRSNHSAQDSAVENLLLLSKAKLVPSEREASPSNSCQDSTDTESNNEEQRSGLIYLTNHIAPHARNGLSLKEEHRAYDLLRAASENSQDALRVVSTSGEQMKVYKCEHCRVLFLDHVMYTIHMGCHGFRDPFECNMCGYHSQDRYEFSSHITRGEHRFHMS
T6 sequence (Q96SW2 whole entry): as the sequence (Q96SW2 whole entry) above
T6 sequence (Q16531 whole entry partner): as the sequence (Q16531 whole entry partner) above

SMILES | Weel substrate protein remaining % [1, 7] | IKZF3 substrate protein remaining % [2, 7] | IKZF2 substrate protein remaining % [3, 7] | GSPT1 substrate protein remaining % [4, 7] | CK1a substrate protein remaining % [5, 7] | IKZF 1 substrate protein remaining % [6, 7] | Weel substrate protein remaining % [1, 8] | IKZF3 substrate protein remaining % [2, 8] | IKZF2 substrate protein remaining % [3, 8] | GSPT1 substrate protein remaining % [4, 8] | CK1a substrate protein remaining % [5, 8] | IKZF 1 substrate protein remaining % [6, 8]
O=C1CCC(N2C(=O)c3ccc(CN4CCN(c5ccnc(Cl)c5Cl)CC4)cc3C2=O)C(=O)N1 (stereo not drawn) [GT-06534, 5-((4-(2,3-dichloropyridin-4-yl)piperazin-1-yl)methyl)-2-(2,6-dioxopiperidin-3-yl)isoindoline-1,3-dione] | B (80%< substrate protein remaining %≤ 100%) | B (80%< substrate protein remaining %≤ 100%) | B (80%< substrate protein remaining %≤ 100%) | A (0% ≤ substrate protein remaining % ≤ 80%) | B (80%< substrate protein remaining %≤ 100%) | B (80%< substrate protein remaining %≤ 100%) |  |  |  |  |  | 
Cc1ccccc1N1CCN(Cc2ccc3c(c2)C(=O)N(C2CCC(=O)NC2=O)C3=O)CC1 (stereo not drawn) [GT-06296, 2-(2,6-dioxopiperidin-3-yl)-5-((4-(o-tolyl)piperazin-1-yl)methyl)isoindoline-1,3-dione] | B (80%< substrate protein remaining %≤ 100%) | B (80%< substrate protein remaining %≤ 100%) | B (80%< substrate protein remaining %≤ 100%) | A (0% ≤ substrate protein remaining % ≤ 80%) | B (80%< substrate protein remaining %≤ 100%) | B (80%< substrate protein remaining %≤ 100%) |  |  |  |  |  | 
O=C1CCC(N2C(=O)c3ccc(CN4CCC(c5noc6cc(F)ccc56)CC4)cc3C2=O)C(=O)N1 (stereo not drawn) [GT-04771, 2-(2,6-dioxopiperidin-3-yl)-5-((4-(6-fluorobenzo[d]isoxazol-3-yl)piperidin-1-yl)methyl)isoindoline-1,3-dione] |  |  |  |  |  |  | A (0% ≤ substrate protein remaining % ≤ 80%) | B (80%< substrate protein remaining %≤ 100%) | B (80%< substrate protein remaining %≤ 100%) | A (0% ≤ substrate protein remaining % ≤ 80%) | A (0% ≤ substrate protein remaining % ≤ 80%) | B (80%< substrate protein remaining %≤ 100%)
O=C1CCC(N2C(=O)c3ccc(CN4CCN(c5c(F)cccc5F)CC4)cc3C2=O)C(=O)N1 (stereo not drawn) [GT-06363, 5-((4-(2,6-difluorophenyl)piperazin-1-yl)methyl)-2-(2,6-dioxopiperidin-3-yl)isoindoline-1,3-dione] | B (80%< substrate protein remaining %≤ 100%) | B (80%< substrate protein remaining %≤ 100%) | B (80%< substrate protein remaining %≤ 100%) | A (0% ≤ substrate protein remaining % ≤ 80%) | B (80%< substrate protein remaining %≤ 100%) | A (0% ≤ substrate protein remaining % ≤ 80%) |  |  |  |  |  | 
O=C1CCC(N2C(=O)c3ccc(CN4CCN(c5cccc(Br)c5)CC4)cc3C2=O)C(=O)N1 (stereo not drawn) [GT-06289, 5-((4-(3-bromophenyl)piperazin-1-yl)methyl)-2-(2,6-dioxopiperidin-3-yl)isoindoline-1,3-dione] | B (80%< substrate protein remaining %≤ 100%) | B (80%< substrate protein remaining %≤ 100%) | B (80%< substrate protein remaining %≤ 100%) | A (0% ≤ substrate protein remaining % ≤ 80%) | B (80%< substrate protein remaining %≤ 100%) | B (80%< substrate protein remaining %≤ 100%) |  |  |  |  |  | 
O=C1CCC(N2C(=O)c3ccc(CN4CCN(c5ccncc5Br)CC4)cc3C2=O)C(=O)N1 (stereo not drawn) [GT-06556, 5-((4-(3-bromopyridin-4-yl)piperazin-1-yl)methyl)-2-(2,6-dioxopiperidin-3-yl)isoindoline-1,3-dione] | B (80%< substrate protein remaining %≤ 100%) | B (80%< substrate protein remaining %≤ 100%) | A (0% ≤ substrate protein remaining % ≤ 80%) | A (0% ≤ substrate protein remaining % ≤ 80%) | B (80%< substrate protein remaining %≤ 100%) | B (80%< substrate protein remaining %≤ 100%) |  |  |  |  |  | 
COc1cccc(N2CCN(Cc3ccc4c(c3)C(=O)N(C3CCC(=O)NC3=O)C4=O)CC2)c1 (stereo not drawn) [GT-06288, 2-(2,6-dioxopiperidin-3-yl)-5-((4-(3-methoxyphenyl)piperazin-1-yl)methyl)isoindoline-1,3-dione] | B (80%< substrate protein remaining %≤ 100%) | B (80%< substrate protein remaining %≤ 100%) | B (80%< substrate protein remaining %≤ 100%) | A (0% ≤ substrate protein remaining % ≤ 80%) | B (80%< substrate protein remaining %≤ 100%) | B (80%< substrate protein remaining %≤ 100%) |  |  |  |  |  | 
O=C1CCC(N2C(=O)c3ccc(CN4CCN(c5ccc(F)c(F)c5)CC4)cc3C2=O)C(=O)N1 (stereo not drawn) [GT-06364, 5-((4-(3,4-difluorophenyl)piperazin-1-yl)methyl)-2-(2,6-dioxopiperidin-3-yl)isoindoline-1,3-dione] | B (80%< substrate protein remaining %≤ 100%) | B (80%< substrate protein remaining %≤ 100%) | B (80%< substrate protein remaining %≤ 100%) | A (0% ≤ substrate protein remaining % ≤ 80%) | B (80%< substrate protein remaining %≤ 100%) | B (80%< substrate protein remaining %≤ 100%) |  |  |  |  |  | 
O=C1CCC(N2C(=O)c3ccc(CN4CCC(c5ccccc5C(F)(F)F)CC4)cc3C2=O)C(=O)N1 (stereo not drawn) [GT-06375, 2-(2,6-dioxopiperidin-3-yl)-5-((4-(2-(trifluoromethyl)phenyl)piperidin-1-yl)methyl)isoindoline-1,3-dione] | A (0% ≤ substrate protein remaining % ≤ 80%) | B (80%< substrate protein remaining %≤ 100%) | A (0% ≤ substrate protein remaining % ≤ 80%) | A (0% ≤ substrate protein remaining % ≤ 80%) | B (80%< substrate protein remaining %≤ 100%) | A (0% ≤ substrate protein remaining % ≤ 80%) |  |  |  |  |  | 
O=C1CCC(N2C(=O)c3ccc(CN4CCC(C5CCOc6cc(F)ccc65)CC4)cc3C2=O)C(=O)N1 (stereo not drawn) [GT-06237, 2-(2,6-dioxopiperidin-3-yl)-5-((4-(7-fluorochroman-4-yl)piperidin-1-yl)methyl)isoindoline-1,3-dione] |  |  |  |  |  |  | B (80%< substrate protein remaining %≤ 100%) | B (80%< substrate protein remaining %≤ 100%) | B (80%< substrate protein remaining %≤ 100%) | A (0% ≤ substrate protein remaining % ≤ 80%) | B (80%< substrate protein remaining %≤ 100%) | B (80%< substrate protein remaining %≤ 100%)
O=C1CCC(N2C(=O)c3ccc(CN4CCC(c5ccon5)CC4)cc3C2=O)C(=O)N1 (stereo not drawn) [GT-06628, 2-(2,6-dioxopiperidin-3-yl)-5-((4-(isoxazol-3-yl)piperidin-1-yl)methyl)isoindoline-1,3-dione] | B (80%< substrate protein remaining %≤ 100%) | B (80%< substrate protein remaining %≤ 100%) | B (80%< substrate protein remaining %≤ 100%) | A (0% ≤ substrate protein remaining % ≤ 80%) | B (80%< substrate protein remaining %≤ 100%) | B (80%< substrate protein remaining %≤ 100%) |  |  |  |  |  | 
O=C1CCC(N2C(=O)c3ccc(CN4CCn5c(nnc5C(F)(F)F)C4)cc3C2=O)C(=O)N1 (stereo not drawn) [GT-04921, 2-(2,6-dioxopiperidin-3-yl)-5-((3-(trifluoromethyl)-5,6-dihydro-[1,2,4]triazolo[4,3-a]pyrazin-7(8H)-yl)methyl)isoindoline-1,3-dione] |  |  |  |  |  |  | A (0% ≤ substrate protein remaining % ≤ 80%) | B (80%< substrate protein remaining %≤ 100%) | B (80%< substrate protein remaining %≤ 100%) | B (80%< substrate protein remaining %≤ 100%) | B (80%< substrate protein remaining %≤ 100%) | A (0% ≤ substrate protein remaining % ≤ 80%)
O=C1CCC(N2C(=O)c3ccc(CN4CCN(c5ccccc5Br)CC4)cc3C2=O)C(=O)N1 (stereo not drawn) [GT-06293, 5-((4-(2-bromophenyl)piperazin-1-yl)methyl)-2-(2,6-dioxopiperidin-3-yl)isoindoline-1,3-dione] | B (80%< substrate protein remaining %≤ 100%) | B (80%< substrate protein remaining %≤ 100%) | B (80%< substrate protein remaining %≤ 100%) | A (0% ≤ substrate protein remaining % ≤ 80%) | B (80%< substrate protein remaining %≤ 100%) | B (80%< substrate protein remaining %≤ 100%) |  |  |  |  |  | 
